Measurements taken from US20050080113A1, “Medicinal compositions” (priority 2001, published 2005).

Q: For `CCC(=O)Nc1cc(-c2sc(C3CCN(C)CC3)nc2-c2cccc(Cl)c2)ccn1.Cl.Cl`, which melting point is on record?
A: 350 to 351 °C

Q: Which melting point does the source give for `Cc1cccc(-c2nc(NC(=O)NCCCl)sc2-c2ccnc(C)c2)c1` here?
A: 149 to 151 °C

Q: Which melting point does the source give for `CC(=O)Nc1cc(-c2sc(C3CCNCC3)nc2-c2cccc(Cl)c2)ccn1.Cl.Cl` here?
A: 193 to 195 °C

Q: With `CCC(=O)Nc1cc(-c2sc(C3CCNCC3)nc2-c2cccc(Cl)c2)ccn1.Cl.Cl` as the compound, how does the melting point read?
A: 202 to 203 °C

Q: For `CCc1nc(-c2cccc(Cl)c2)c(-c2ccnc(N[C@@H](C)c3ccccc3)c2)s1.Cl`, which melting point is on record?
A: 165 to 166 °C

Q: Which melting point does the source give for `COc1ccc(-c2nc(N)sc2-c2ccncc2)cc1` [13-14, [4-(4-methoxyphenyl)-5-(4-pyridyl)-1,3-thiazol-2-yl]amine] here?
A: 282 to 284 °C

Q: For `Nc1nc(-c2ccccc2)c(-c2ccncc2)s1` [13-15, [4-phenyl-5-(4-pyridyl)-1,3-thiazol-2-yl]amine], which melting point is on record?
A: 248 to 250 °C

Q: Which melting point does the source give for `Cc1cc(C)cc(-c2nc(N)sc2-c2ccncc2)c1` [23-133, [4 (3,5 dimethylphenyl)-5 (4 pyridyl)-1,3 thiazol-2 yl]amine] here?
A: 242 to 244 °C

Q: With `CC(=O)Nc1nc(-c2ccc(C(C)(C)C)cc2)c(-c2ccncc2)s1` [23-137, N-[4 [4 (1,1 dimethylethyl)phenyl]-5 (4 pyridyl)-1,3 thiazol-2 yl]acetamide] as the compound, how does the melting point read?
A: 280 to 281 °C

Q: With `CC(C)(C)c1ccc(-c2nc(N)sc2-c2ccncc2)cc1` [23-143, [4 [4 (1,1 dimethylethyl)phenyl]-5 (4 pyridyl)-1,3 thiazol-2-yl]amine] as the compound, how does the melting point read?
A: 254 to 257 °C

Q: With `CC(C)(C)c1ccc(-c2nc(NC(=O)c3ccccc3)sc2-c2ccncc2)cc1` [23-164, N-[4 [4 (1,1 dimethylethyl)phenyl]-5 (4 pyridyl)-1,3 thiazol-2 yl]benzamide] as the compound, how does the melting point read?
A: 292 to 294 °C

Q: With `CC(C)(C)c1ccc(-c2nc(NC(=O)c3cccnc3)sc2-c2ccncc2)cc1` [23-165, N-[4 [4 (1,1 dimethylethyl)phenyl]-5 (4 pyridyl)-1,3 thiazol-2 yl]nicotinamide] as the compound, how does the melting point read?
A: 326 to 328 °C

Q: Which melting point does the source give for `CC(C)(C)c1ccc(-c2nc(NC(=O)C3CCCC3)sc2-c2ccncc2)cc1` [23-168, N-[4 [4 (1,1 dimethylethyl)phenyl]-5 (4 pyridyl)-1,3 thiazol-2 yl]cyclopentanecarboxamide] here?
A: 309 to 311 °C

Q: For `CCC(=O)Nc1nc(-c2cc(C)cc(C)c2)c(-c2ccncc2)s1` [23-194, N-[4 (3,5 dimethylphenyl)-5 (4 pyridyl)-1,3 thiazol-2-yl]propionamide], which melting point is on record?
A: 291 to 293 °C

Q: Which melting point does the source give for `Cc1cc(C)cc(-c2nc(NC(=O)C(C)C)sc2-c2ccncc2)c1` [23-195, N-[4 (3,5 dimethylphenyl)-5 (4 pyridyl)-1,3 thiazol-2 yl]-2-methylpropionamide] here?
A: 270 to 272 °C

Q: With `Cc1cc(C)cc(-c2nc(NC(=O)Cc3ccccc3)sc2-c2ccncc2)c1` [23-196, N-[4 (3,5 dimethylphenyl)-5 (4 pyridyl)-1,3 thiazol-2 yl]-2-phenylacetamide] as the compound, how does the melting point read?
A: 226 to 229 °C

Q: With `Cc1cc(C)cc(-c2nc(NC(=O)c3ccccc3)sc2-c2ccncc2)c1` [23-197, N-[4 (3,5 dimethylphenyl)-5 (4 pyridyl)-1,3 thiazol-2-yl]benzamide] as the compound, how does the melting point read?
A: 285 to 286 °C

Q: For `Cc1cc(C)cc(-c2nc(NC(=O)C3CCCC3)sc2-c2ccncc2)c1` [23-198, N-[4 (3,5 dimethylphenyl)-5 (4 pyridyl)-1,3 thiazol-2-yl]cyclopentanecarboxamide], which melting point is on record?
A: 275 to 278 °C

Q: With `Cc1cc(C)cc(-c2nc(NC(=O)c3cccnc3)sc2-c2ccncc2)c1` [23-199, N-[4 (3,5 dimethylphenyl)-5 (4 pyridyl)-1,3 thiazol-2-yl]nicotinamide] as the compound, how does the melting point read?
A: 267 to 270 °C

Q: With `CCNC(=O)Nc1nc(-c2cc(C)cc(C)c2)c(-c2ccncc2)s1` [23-201, N-[4 (3,5 dimethylphenyl)-5 (4 pyridyl)-1,3 thiazol-2 yl]-N′-ethylurea] as the compound, how does the melting point read?
A: 202 to 203 °C

Q: Which melting point does the source give for `CCCNC(=O)Nc1nc(-c2cc(C)cc(C)c2)c(-c2ccncc2)s1` [23-202, N-[4 (3,5 dimethylphenyl)-5 (4 pyridyl)-1,3 thiazol-2 yl]-N′-propylurea] here?
A: 128 to 130 °C

Q: Which melting point does the source give for `Cc1cc(C)cc(-c2nc(NC(=O)c3cnccn3)sc2-c2ccncc2)c1` [23-246, N-[4 (3,5 dimethylphenyl)-5 (4 pyridyl)-1,3 thiazol-2-yl]pyrazinecarboxamide] here?
A: 269 to 270 °C

Q: Which melting point does the source give for `Cc1cccc(-c2nc(-c3ccc(F)cc3)sc2-c2ccnc(NC(=O)Cc3ccccc3)c2)c1` [D 14, N-[4-[2-(4-fluorophenyl)-4-(3-methylphenyl)-1,3-thiazol-5-yl]-2-pyridyl]phenylacetamide] here?
A: 187 to 190 °C

Q: Which melting point does the source give for `COc1ccc(-c2nc(C)sc2-c2ccnc(NC(=O)Cc3ccccc3)c2)cc1` [D 15-1, N-[4 [4 (4 methoxyphenyl)-2 methyl-1,3 thiazol-5 yl]-2 pyridyl]phenylacetamide] here?
A: 118 to 120 °C

Q: Which melting point does the source give for `CCCCc1nc(-c2cccc(C)c2)c(-c2ccnc(NC(=O)Cc3ccccc3)c2)s1` [D 15-4, N-[4-[2-butyl-4-(3-methylphenyl)-1,3-thiazol-5-yl]-2-pyridyl]phenylacetamide] here?
A: 92 to 93 °C

Q: For `CCCc1nc(-c2cccc(C)c2)c(-c2ccnc(NC(=O)CCc3ccccc3)c2)s1` [D 16-8, N-[4-[4-(3-methylphenyl)-2-propyl-1,3-thiazol-5-yl]-2-pyridyl]-3-phenylpropionamide], which melting point is on record?
A: 103 to 104 °C

Q: Which melting point does the source give for `Cc1cccc(-c2nc(-c3ccc(F)cc3)sc2-c2ccnc(NC(=O)c3ccccc3)c2)c1` [D 16-11, N-[4-[2-(4-fluorophenyl)-4-(3-methylphenyl)-1,3-thiazol-5-yl]-2-pyridyl]benzamide] here?
A: 126 to 128 °C

Q: With `Cc1cccc(-c2nc(-c3ccc(F)cc3)sc2-c2ccnc(NC(=O)CCc3ccccc3)c2)c1` [D 16-12, N-[4-[2-(4-fluorophenyl)-4-(3-methylphenyl)-1,3-thiazol-5-yl]-2-pyridyl]-3-phenylpropionamide] as the compound, how does the melting point read?
A: 169 to 171 °C

Q: For `Cc1cccc(-c2nc(-c3ccccc3Cl)sc2-c2ccnc(NC(=O)c3ccccc3)c2)c1` [D 16-13, N-[4 [2 (2 chlorophenyl)-4 (3 methylphenyl)-1,3 thiazol-5 yl]-2 pyridyl]benzamide], which melting point is on record?
A: 138 to 140 °C

Q: With `Cc1cccc(-c2nc(-c3ccccc3Cl)sc2-c2ccnc(NC(=O)CCc3ccccc3)c2)c1` [D 16-14, N-[4 [2 (2 chlorophenyl)-4 (3 methylphenyl)-1,3 thiazol-5 yl]-2 pyridyl]-3-phenylpropionamide] as the compound, how does the melting point read?
A: 156 to 158 °C

Q: Which melting point does the source give for `CSc1ccc(-c2nc(-c3cccc(C)c3)c(-c3ccnc(NC(=O)c4ccccc4)c3)s2)cc1` [D 16-15, N-[4-[4-(3-methylphenyl)-2-(4-methylthiophenyl)-1,3-thiazol-5-yl]-2-pyridyl]benzamide] here?
A: 180 to 182 °C

Q: With `CSc1ccc(-c2nc(-c3cccc(C)c3)c(-c3ccnc(NC(=O)CCc4ccccc4)c3)s2)cc1` [D 16-16, N-[4-[4-(3-methylphenyl)-2-(4-methylthiophenyl)-1,3-thiazol-5-yl]-2-pyridyl]-3-phenylpropionamide] as the compound, how does the melting point read?
A: 174 to 175 °C

Q: With `CSc1ccc(-c2nc(-c3cccc(C)c3)c(-c3ccnc(NC(=O)c4cccs4)c3)s2)cc1` [D 16-17, N-[4 [4 (3 methylphenyl)-2 (4 methylthiophenyl)-1,3 thiazol-5 yl]-2 pyridyl]-2-thiophenecarboxamide] as the compound, how does the melting point read?
A: 145 to 147 °C

Q: Which melting point does the source give for `CSc1ccc(-c2nc(-c3cccc(C)c3)c(-c3ccnc(NC(=O)c4ccc5ccccc5c4)c3)s2)cc1` [D 16-18, N-[4 [4 (3 methylphenyl)-2 (4 methylthiophenyl)-1,3 thiazol-5 yl]-2 pyridyl]-2-naphthamide] here?
A: 184 to 186 °C

Q: For `COc1ccc(-c2nc(C)sc2-c2ccnc(NCc3ccccc3)c2)cc1` [D 19-1, N-benzyl-N-[4 [4 (4 methoxyphenyl)-2 methyl-1,3 thiazol-5 yl]-2 pyridyl]amine], which melting point is on record?
A: 132 to 133 °C

Q: Which melting point does the source give for `Cc1cccc(-c2nc(-c3ccc(F)cc3)sc2-c2ccnc(NCc3ccccc3)c2)c1` [D 19-11, N-benzyl-N-[4 [2 (4-fluorophenyl)-4 (3 methylphenyl)-1,3 thiazol-5 yl]-2-pyridyl]amine] here?
A: 143 to 146 °C

Q: For `Cc1cccc(-c2nc(-c3ccc(F)cc3)sc2-c2ccnc(NCCc3ccccc3)c2)c1` [D 19-12, N-[4 [2 (4 fluorophenyl)-4 (3 methylphenyl)-1,3 thiazol-5 yl]-2 pyridyl]-N-(2-phenylethyl)amine], which melting point is on record?
A: 97 to 98 °C

Q: With `Cc1cccc(-c2nc(-c3ccccc3Cl)sc2-c2ccnc(NCc3ccccc3)c2)c1` [D 19-14, N-benzyl-N-[4 [2 (2-chlorophenyl)-4 (3 methylphenyl)-1,3 thiazol-5 yl]-2-pyridyl]amine] as the compound, how does the melting point read?
A: 84 to 88 °C

Q: With `Cc1cccc(-c2nc(-c3ccccc3Cl)sc2-c2ccnc(NCCc3ccccc3)c2)c1` [D 19-15, N-[4 [2 (2 chlorophenyl)-4 (3 methylphenyl)-1,3 thiazol-5 yl]-2 pyridyl]-N-(2-phenylethyl)amine] as the compound, how does the melting point read?
A: 113 to 114 °C

Q: For `Cc1cccc(-c2nc(-c3ccccc3Cl)sc2-c2ccnc(NCCCc3ccccc3)c2)c1` [D 19-16, N-[4 [2 (2 chlorophenyl)-4 (3 methylphenyl)-1,3 thiazol-5 yl]-2 pyridyl]-N-(3-phenylpropyl)amine], which melting point is on record?
A: 101 to 102 °C

Q: Which melting point does the source give for `CSc1ccc(-c2nc(-c3cccc(C)c3)c(-c3ccnc(NCc4ccccc4)c3)s2)cc1` [D 19-17, N-benzyl-N-[4-[4-(3-methylphenyl)-2-(4-methylthiophenyl)-1,3-thiazol-5-yl]-2-pyridyl]amine] here?
A: 134 to 136 °C

Q: Which melting point does the source give for `CSc1ccc(-c2nc(-c3cccc(C)c3)c(-c3ccnc(NCCc4ccccc4)c3)s2)cc1` [D 19-18, N-[4-[4-(3-methylphenyl)-2-(4-methylthiophenyl)-1,3-thiazol-5-yl]-2-pyridyl]-N-(2-phenylethyl)amine] here?
A: 137 to 139 °C

Q: For `CSc1ccc(-c2nc(-c3cccc(C)c3)c(-c3ccnc(NCCCc4ccccc4)c3)s2)cc1` [D 19-19, N-[4-[4-(3-methylphenyl)-2-(4-methylthiophenyl)-1,3-thiazol-5-yl]-2-pyridyl]-N-(3-phenylpropyl)amine], which melting point is on record?
A: 106 to 107 °C
